# Test system: not listed separately
# Test: Liver exposure: substance level in liver homogenate by LC-MS/MS
# Type: in vivo
# Details: rat, oral, male Wistar rats, 10 mg/kg of body weight, liver dissected after 2 h, read-out: Cmax values in the liver (L)
# Method: The liver exposure of the compounds of the invention compared with the corresponding compounds without a hydroxyl function in the 2″ position was investigated in vivo in male Wistar rats. A rat anesthetized with ketamine/midazolam (ketamine 80 mg/kg i.p.+midazolam 5 mg/kg i.p.) undergoes laparotomy in the Linea alba, and then the product is administered intraduodenally. During this it is attempted to prevent direct reflux of the product into the stomach. The animals remain under anesthesia throughout the experiment. At the end of the experiment, after 2 h, the liver is dissected out for determination of the substance. The substance levels in the liver homogenates are determined by LC-MS/MS. For this purpose, initially the proteins are precipitated by adding acetonitrile in the presence of an internal standard. Part of the supernatant is mixed with a suitable buffer, and an aliquot of the mixture is injected. The measurement is evaluated via the peak areas of analyte and internal standard.
# Cmax values in the liver (L) after oral administration of 10 mg/kg of body weight
row,Compound,Cmax at 2 h
1,N.O=C1[C@H](CC[C@H](O)c2ccc(F)cc2)[C@@H](c2ccc(OCCCOS(=O)(=O)O)cc2)N1c1ccc(F)cc1 [reference compound],24300 ng/mL
2,O=C1[C@H](CC[C@H](O)c2ccc(F)cc2)[C@@H](c2ccc(OCc3ccc(C[N+]45CCN(CC4)CC5)cc3)cc2O)N1c1ccc(F)cc1.[Br-],80 ng/mL
3,N.O=C1[C@H](CC[C@H](O)c2ccc(F)cc2)[C@@H](c2ccc(OCCCOS(=O)(=O)O)cc2O)N1c1ccc(F)cc1,300 ng/mL
4,O=C1[C@H](CC[C@H](O)c2ccc(F)cc2)[C@@H](c2ccc(OCc3ccc(C[N+]45CCN(CC4)CC5)cc3)cc2)N1c1ccc(F)cc1.[Br-] [reference compound],200 ng/mL

# Test system: serum LDL cholesterol
# Test: Hamster model: serum LDL cholesterol reduction on a cholesterol-supplemented diet
# Type: in vivo, Syrian hamsters
# Details: Mesocricetus auratus, po, once a day by gavage on 12 consecutive days, LDL cholesterol reduction vs placebo-treated controls
# Method: Syrian hamsters (in groups of n=5-9) receive a standard diet (ssniff, Soest Germany) supplemented with 0.1% cholesterol.
# The test substances are made up in 0.5%/(methylcellulose (Sigma)/5% Solutol (BASF, Ludwigshafen) or another suitable vehicle, and at least three dosages are administered once a day by gavage on 12 consecutive days.
# On day 12, the animals are exsanguinated from the aorta under deep anesthesia. The serum is analyzed for total cholesterol, LDL-cholesterol, HDL-cholesterol and triglycerides using standard kits from Roche in accordance with the guidelines of the German Society for Clinical Chemistry.
# The ED50 values for LDL cholesterol reduction compared with placebo-treated control animals were calculated using a standard logistic model for the dose-effect plot.
row,Compound,ED50
1,"O=C(Oc1ccc([C@@H]2[C@@H](CC[C@H](O)c3ccc(F)cc3)C(=O)N2c2ccc(F)cc2)c(O)c1)N1CCN(S(=O)(=O)O)CC1 [I, Ammonium 4-(4-{1-(4-Fluorophenyl)-3-[3-(4-fluorophenyl)-3-hydroxypropyl]-4-oxoazetidin-2-yl}-3-hydroxyphenoxycarbonyl)piperazine-1-sulfamate]",< 0.1 mg/kg
2,"O=C(OCc1ccc([C@@H]2[C@@H](CC[C@H](O)c3ccc(F)cc3)C(=O)N2c2ccc(F)cc2)c(O)c1)N1CCN(S(=O)(=O)O)CC1 [Example A, Ammonium 4-(4-{1-(4-fluorophenyl)-3-[3-(4-fluorophenyl)-3-hydroxypropyl]-4-oxoazetidin-2-yl}-3-hydroxybenzyloxycarbonyl)piperazine-1-sulfamate]",0.2 mg/kg
3,"O=C(Nc1ccc([C@@H]2[C@@H](CC[C@H](O)c3ccc(F)cc3)C(=O)N2c2ccc(F)cc2)c(O)c1)N1CCN(S(=O)(=O)O)CC1 [Example E, Ammonium 4-(4-{1-(4-fluorophenyl)-3-[3-(4-fluorophenyl)-3-hydroxypropyl]-4-oxoazetidin-2-yl}-3-hydroxyphenylcarbamoyl)piperazine-1-sulfamate]",0.1 mg/kg

# Test system: uptake of 14C-cholesterol in the liver (cholesterol absorption)
# Test: Cholesterol absorption test: uptake of 14C-cholesterol in the liver after an oral test meal
# Type: in vivo, NMRI mice
# Details: mouse, dose which halves (50%) the uptake of 14C-cholesterol in the liver relative to control group
# Method: Influence on Cholesterol Absorption+^3H-Taurocholic Acid Excretion on the Basis of the Fecal Excretion in Mice, Rats or Hamsters
# NMRI mice, Wistar rats, or golden Syrian hamsters (in groups of n=4-6) are kept with a standard diet (Altromin, Lage (Lippe)) in metabolism cages. The animals are fasted from the afternoon before administration of the radioactive tracer (^14C-cholesterol) and adapted to wire grids.
# In addition, the animals are labeled with ^3H-TCA (taurocholic acid) s.c. 24 hours before the oral administration of the test meal (^14C-cholesterol in Intralipid® 20, Pharmacia-Upjohn) (e.g. 1 μCi/mouse to 5 μCi/rat).
# Cholesterol absorption test: 0.25 ml/mouse Intralipid® 20 (Pharmacia-Upjohn) (spiking with 0.25 μCi ^14C-cholesterol in 0.1 mg of cholesterol) is administered orally by gavage.
# Test substances are made up separately in 0.5%/(methylcellulose (Sigma)/5% Solutol (BASF, Ludwigshafen) or a suitable vehicle.
# The volume for administration of the test substance is 0.5 ml/mouse. The test substance is administered orally immediately before the test meal (Intralipid with ^14C-cholesterol label) (cholesterol absorption test).
# Feces are collected for 24 h: the fecal elimination of ^14C-cholesterol and ^3H taurocholic acid (TCA) is determined after 24 h.
# The livers are removed, homogenized and combusted in aliquots in an oximate (model 307, Packard) to determine the amount of ^14C-cholesterol taken up/absorbed.
# The amount of ^14C-cholesterol taken up in the liver is evaluated in relation to a control group (vehicle-treated) as a function of the dose of the substance administered. The ED50 values are interpolated from a dose-effect plot as the dose which halves (50%) the uptake of ^14C-cholesterol in the liver relative to a control group.
row,Compound,ED50 (liver)
1,"COc1ccc([C@@H]2[C@@H](CC[C@H](O)c3ccc(F)cc3)C(=O)N2c2ccc(CNC(=O)CCCCCCCCCCNC(=O)[C@H](O)[C@@H](O)[C@H](O)[C@H](O)CO)cc2)c(O)c1 [Example O, 11-(2,3,4,5,6-Pentahydroxyhexanoylamino)undecanoic acid 4-[3-[3-(4-fluorophenyl)-3-hydroxypropyl]-2-(2-hydroxy-4-methoxyphenyl)-4-oxoazetidin-1-yl]benzylamide]",<0.01 mg/mouse
2,"C[N+]1(C)CCN(C(=O)OCc2ccc([C@@H]3[C@@H](CC[C@H](O)c4ccc(F)cc4)C(=O)N3c3ccc(F)cc3)c(O)c2)CC1.[I-] [Example C, 4-(4-{1-(4-Fluorophenyl)-3-[3-(4-fluorophenyl)-3-hydroxypropyl]-4-oxoazetidin-2-yl}-3-hydroxybenzyloxycarbonyl)-1,1-dimethylpiperazin-1-ium iodide]",0.1 mg/mouse
3,"O=C1C(CC[C@H](O)c2ccc(F)cc2)[C@@H](c2ccc(OCc3ccc(C[N+]45CCN(CC4)CC5)cc3)cc2O)N1c1ccc(F)cc1.[Br-] (stereo partly shown) [Example N, 1-[4-(4-{1-(4-Fluorophenyl)-3-[3-(4-fluorophenyl)-3-hydroxypropyl]-4-oxoazetidin-2-yl}-3-hydroxyphenoxymethyl)benzyl]-4-aza-1-azoniabicyclo[2.2.2]octane bromide]",0.01 mg/mouse
4,"C[n+]1ccn(CCCCOc2ccc([C@@H]3C(CC[C@H](O)c4ccc(F)cc4)C(=O)N3c3ccc(F)cc3)c(O)c2)c1.[I-] (stereo in doubt) [Example M, 3-[4-(4-{1-(4-Fluorophenyl)-3-[3-(4-fluorophenyl)-3-hydroxypropyl]-4-oxoazetidin-2-yl}-3-hydroxyphenoxy)butyl]-1-methyl-3H-imidazol-1-ium iodide]",<0.1 mg/mouse
5,"O=C(Oc1ccc([C@@H]2[C@@H](CC[C@H](O)c3ccc(F)cc3)C(=O)N2c2ccc(F)cc2)c(O)c1)N1CCN(S(=O)(=O)O)CC1 [I, Ammonium 4-(4-{1-(4-Fluorophenyl)-3-[3-(4-fluorophenyl)-3-hydroxypropyl]-4-oxoazetidin-2-yl}-3-hydroxyphenoxycarbonyl)piperazine-1-sulfamate]",0.01 mg/mouse
6,"O=C1[C@H](CC[C@H](O)c2ccc(F)cc2)[C@@H](c2ccc(NS(=O)(=O)O)cc2O)N1c1ccc(F)cc1 [Example F, Ammonium (4-[1-(4-fluorophenyl)-3-[3-(4-fluorophenyl)-3-hydroxypropyl]-4-oxoazetidin-2-yl]-3-hydroxyphenyl)sulfamate]",0.3 mg/mouse
7,O=C1[C@H](CC[C@H](O)c2ccc(F)cc2)[C@@H](c2ccc(OCCCOS(=O)(=O)O)cc2O)N1c1ccc(F)cc1 [Example K],<0.01 mg/mouse
8,"O=C(OCc1ccc([C@@H]2[C@@H](CC[C@H](O)c3ccc(F)cc3)C(=O)N2c2ccc(F)cc2)c(O)c1)N1CCN(S(=O)(=O)O)CC1 [Example A, Ammonium 4-(4-{1-(4-fluorophenyl)-3-[3-(4-fluorophenyl)-3-hydroxypropyl]-4-oxoazetidin-2-yl}-3-hydroxybenzyloxycarbonyl)piperazine-1-sulfamate]",0.01 mg/mouse
9,"O=C(C[N+]12CCN(CC1)CC2)Nc1ccc([C@@H]2[C@@H](CC[C@H](O)c3ccc(F)cc3)C(=O)N2c2ccc(F)cc2)c(O)c1.[I-] [H, 1-[(4-{1-(4-Fluorophenyl)-3-[3-(4-fluorophenyl)-3-hydroxypropyl]-4-oxoazetidin-2-yl}-3-hydroxyphenylcarbamoyl)methyl]-4-aza-1-azoniabicyclo[2.2.2]octane iodide]",0.01 mg/mouse
10,"O=C(Nc1ccc([C@@H]2[C@@H](CC[C@H](O)c3ccc(F)cc3)C(=O)N2c2ccc(F)cc2)c(O)c1)N1CCN(S(=O)(=O)O)CC1 [Example E, Ammonium 4-(4-{1-(4-fluorophenyl)-3-[3-(4-fluorophenyl)-3-hydroxypropyl]-4-oxoazetidin-2-yl}-3-hydroxyphenylcarbamoyl)piperazine-1-sulfamate]",<0.01 mg/mouse
11,"COc1ccc([C@@H]2[C@@H](CC[C@H](O)c3ccc(F)cc3)C(=O)N2c2ccc(CNC(=O)N3CCN(C(=O)C[N+]45CCN(CC4)CC5)CC3)cc2)c(O)c1.[Cl-] [Example P, 1-[2-(4-{4-[3-[3-(4-Fluorophenyl)-3-hydroxypropyl]-2-(2-hydroxy-4-methoxyphenyl)-4-oxoazetidin-1-yl]benzylcarbamoyl}piperazin-1-yl)-2-oxoethyl]-4-aza-1-azoniabicyclo[2.2.2]octane chloride]",0.3 mg/mouse
12,"O=C1C(CC[C@H](O)c2ccc(F)cc2)[C@@H](c2ccc(CN3CCN(S(=O)(=O)O)CC3)cc2O)N1c1ccc(F)cc1 (stereo partly shown) [Example B, Ammonium 4-(4-{1-(4-Fluorophenyl)-3-[3-(4-fluorophenyl)-3-hydroxypropyl]-4-oxoazetidin-2-yl}-3-hydroxybenzyl)piperazine-1-sulfamate]",<0.1 mg/mouse

# From patent publication US20080274947A1, “Hydroxy-Substituted Diphenylazetidinones for the Treatment of Hyperlipidemia” (SANOFI-AVENTIS DEUTSCHLAND GMBH, priority 2005, published 2008)
